Series [1] concerns Staphylococcus aureus. The experiment in a line: Antibacterial activity against methicillin-susceptible Staphylococcus aureus ATCC 29213 incubated for overnight measured after 20 to 24 hrs by broth microdilution method. The format is functional. For orientation: In broth dilution the organism is exposed to a series of concentrations in liquid medium.
Series [2] deals with Staphylococcus aureus. Nature of the series: Antibacterial activity against methicillin-resistant Staphylococcus aureus ATCC 43300 incubated for overnight measured after 20 to 24 hrs by broth microdilution method. The class given is functional.
Series [3] has as its system Staphylococcus aureus. Nature of the series: Antibacterial activity against vancomycin-intermediate and daptomycin-nonsusceptible methicillin-resistant Staphylococcus aureus Z172 incubated for overnight measured after 20 to 24 hrs by broth microdilution method. The format is functional.
Series [4] concerns Staphylococcus aureus. The experiment in a line: Antibacterial activity against methicillin-resistant Staphylococcus aureus 4N216 incubated for overnight measured after 20 to 24 hrs by broth microdilution method. The format is functional.
For series [5], the system named is Staphylococcus aureus. The experiment in a line: Antibacterial activity against methicillin-susceptible Staphylococcus aureus M056 incubated for overnight measured after 20 to 24 hrs by broth microdilution method. The class given is functional.
Series [6] concerns Pseudomonas aeruginosa. The experiment in a line: Antibacterial activity against Pseudomonas aeruginosa ATCC 27853 incubated for overnight measured after 20 to 24 hrs by broth microdilution method. The class given is functional.
Series [7] relates to Staphylococcus aureus. Nature of the series: Antibacterial activity against methicillin-resistant Staphylococcus aureus M013 incubated for overnight measured after 20 to 24 hrs by broth microdilution method. The class given is functional.
The subject of series [8] is Staphylococcus aureus. Nature of the series: Antibacterial activity against methicillin-resistant Staphylococcus aureus Y069 incubated for overnight measured after 20 to 24 hrs by broth microdilution method. The format is functional.
Series [9] relates to Staphylococcus aureus. The experiment in a line: Antibacterial activity against methicillin-resistant Staphylococcus aureus N043 incubated for overnight measured after 20 to 24 hrs by broth microdilution method. The class given is functional.
For series [10], the system named is Enterococcus faecalis. Nature of the series: Antibacterial activity against vancomycin-resistant Enterococcus faecalis ATCC 51299 incubated for overnight measured after 20 to 24 hrs by broth microdilution method. The format is functional.
The subject of series [11] is Acinetobacter baumannii. Nature of the series: Antibacterial activity against Acinetobacter baumannii ATCC 19606 incubated for overnight measured after 20 to 24 hrs by broth microdilution method. The format is functional.
Series [12] has as its system Escherichia coli. Nature of the series: Antibacterial activity against Escherichia coli ATCC 25922 incubated for overnight measured after 20 to 24 hrs by broth microdilution method. The class given is functional.
Series [13] has as its system Staphylococcus aureus. The experiment in a line: Antibacterial activity against methicillin-resistant Staphylococcus aureus Z234 incubated for overnight measured after 20 to 24 hrs by broth microdilution method. The class given is functional.
Series [14] relates to Staphylococcus aureus. The experiment in a line: Antibacterial activity against methicillin-resistant Staphylococcus aureus L166 incubated for overnight measured after 20 to 24 hrs by broth microdilution method. The format is functional.
Series [15] deals with Klebsiella pneumoniae. Nature of the series: Antibacterial activity against Klebsiella pneumoneae ATCC 700603 incubated for overnight measured after 20 to 24 hrs by broth microdilution method. The format is functional.
The subject of series [16] is Staphylococcus aureus. The experiment in a line: Antibacterial activity against methicillin-resistant Staphylococcus aureus C217 incubated for overnight measured after 20 to 24 hrs by broth microdilution method. The class given is functional.
Series [17] concerns Mus musculus. The experiment in a line: Acute toxicity in ICR mouse assessed as increase in survival at 100 mg/kg, iv measured after 2 weeks. Conditions: in vivo, 336 h. The class given is organism-based.
Series [18] has as its system Mus musculus. The experiment in a line: Acute toxicity in ICR mouse assessed as increase in body weight at 100 mg/kg, iv measured daily for 2 weeks. The format is organism-based. The settings on record: in vivo, 336 h.

Structures are written as SMILES. Values after ≈ are worked out from the molar mass of the structure shown. Some results are limits rather than exact numbers.

Turning to `OC(CNCCc1c[nH]cn1)Cn1c2ccc(Br)cc2c2cc(Br)ccc21` (stereo not drawn), the MIC in series [1] and in series [2] was 4 µg/mL (≈ 8.13 µM) throughout.

In the case of `OC(Cn1cncn1)Cn1c2ccc(Br)cc2c2cc(Br)ccc21` (stereo not drawn), the MIC in series [1] and in series [2] was 16 µg/mL (≈ 35.5 µM) in each case.

Turning to `O[C@H](CNCCc1c[nH]c2ccc(Cl)cc12)Cn1c2ccc(Br)cc2c2cc(Br)ccc21`, the MIC in series [1] and in [2] was 1 µg/mL (≈ 1.74 µM) in each case.

On to `Oc1ccccc1CCNCC(O)Cn1c2ccc(Br)cc2c2cc(Br)ccc21` (stereo not drawn), for which the MIC in series [1] and in series [2] was 1 to 2 µg/mL (≈ 1.93 to 3.86 µM) throughout.

In the case of `O[C@@H](CNCCc1c[nH]c2cc(F)ccc12)Cn1c2ccc(Cl)cc2c2cc(Cl)ccc21`, the MIC in series [1] and in series [2] was 0.5 to 1 µg/mL (≈ 1.06 to 2.13 µM) in each case.

With `Oc1ccc(CCNCC(O)Cn2c3ccc(Br)cc3c3cc(Br)ccc32)cc1O` (stereo not drawn), the MIC in series [1] and in [2] was 16 µg/mL (≈ 29.9 µM) throughout.

Turning to `OC(CNc1ccc(C(F)(F)F)cc1)Cn1c2ccc(Cl)cc2c2cc(Cl)ccc21` (stereo not drawn), the MIC in series [3] was 1 µg/mL (≈ 2.21 µM); in [4] it was 1 µg/mL (≈ 2.21 µM); in series [5], 1 µg/mL (≈ 2.21 µM); in series [6], more than 64 µg/mL; in series [7], 1 µg/mL (≈ 2.21 µM); in [8] it was 1 µg/mL (≈ 2.21 µM). For the same compound, the MIC in series [9] was 1 µg/mL (≈ 2.21 µM); in series [10], 2 µg/mL (≈ 4.41 µM); in series [11], more than 64 µg/mL; in series [12], more than 64 µg/mL; in series [13] it was 1 µg/mL (≈ 2.21 µM); in [14], 1 µg/mL (≈ 2.21 µM). Further, the MIC is more than 64 µg/mL in series [15] and 1 µg/mL (≈ 2.21 µM) in series [16].

Take `OC(CNc1nc(Cl)nc2ccccc12)Cn1c2ccc(Br)cc2c2cc(Br)ccc21` (stereo not drawn): the MIC in series [1] and in [2] was more than 32 µg/mL throughout.

On to `OC(CNCc1c[nH]c2cc(F)ccc12)Cn1c2ccc(Br)cc2c2cc(Br)ccc21` (stereo not drawn), for which the MIC in series [1] and in [2] was 2 µg/mL (≈ 3.67 µM) each time.

Regarding `OC(CNCCc1c[nH]c2cc(F)ccc12)Cn1c2ccc(Br)cc2c2cc(Br)ccc21` (stereo not drawn), the MIC was 2 µg/mL (≈ 3.58 µM) in [3]; 1 µg/mL (≈ 1.79 µM) in series [1]; 1 µg/mL (≈ 1.79 µM) in series [4]; 1 to 2 µg/mL (≈ 1.79 to 3.58 µM) in series [5]; more than 64 µg/mL in series [6]; 1 µg/mL (≈ 1.79 µM) in [7]. For the same compound, the minimum inhibitory concentration (MIC) was 1 µg/mL (≈ 1.79 µM) in series [8]; 1 µg/mL (≈ 1.79 µM) in series [9]; 2 µg/mL (≈ 3.58 µM) in series [10]; 16 µg/mL (≈ 28.6 µM) in [11]; 8 to 16 µg/mL (≈ 14.3 to 28.6 µM) in series [12]; 1 µg/mL (≈ 1.79 µM) in series [13]. Also, the MIC was 1 µg/mL (≈ 1.79 µM) in [14], more than 64 µg/mL in series [15], 1 µg/mL (≈ 1.79 µM) in series [16] and 1 µg/mL (≈ 1.79 µM) in series [2]. In addition, the Activity result in series [17] and in series [18] was “Non-Toxic” in each case.

For orientation: MIC means the smallest concentration in the dilution series that meets the test's criterion for growth inhibition. A lower MIC goes with a more susceptible organism.
